In the oligonucleotide strings, read from the 5' end, every base follows the letter of its sugar. An asterisk marks phosphorothioate; unmarked linkages are phosphodiester. Other units and linkages are bracketed, terminal groups are in braces. A string of capitals states the bases alone. e = 2'-O-(2-methoxyethyl) (MOE); [5mC] = 5-methylcytosine; d = 2'-deoxy (DNA)

Consider eleven substances from patent US8178506B2, “Oligomeric compounds and compositions for use in modulation of small non-coding RNAs” (Regulus Therapeutics Inc., priority 2003, dated 2012).

This series has as its system HeLa cells. Briefly: Cell cycle assay in HeLa cells. It is filed as cell-based, human. The settings on record: for % cells aneuploid / % cells in cell cycle phase G1 / % cells in cell cycle phase G2/M / % cells in cell cycle phase S / % cells in cell cycle phase subG1 / % cells in cell cycle phase: G1 / % cells in cell cycle phase: G2/M / % cells in cell cycle phase: S / % cells in cell cycle phase: aneuploid / % cells in cell cycle phase: subG1 / % cells in cell cycle phase aneuploid: HeLa cells; for % cells in cell cycle phase: G1 / % cells in cell cycle phase: G2/M / % cells in cell cycle phase: S / % cells in cell cycle phase: aneuploid / % cells in cell cycle phase: subG1: 48 hours after treatment, relative to untreated control (UTC=100). The procedure: In some embodiments, HeLa cells were plated on collagen-coated 24-well plates at 50,000-60,000 cells per well, and allowed to attach to wells overnight. In some embodiments, HeLa cells were synchronized by double thymidine block (cells were washed three times with PBS, then grown in 10% FBS containing 2 mM thymidine; then 19 hours later, cells were washed three times in PBS, 10% FBS for 9 hours; cells were then incubated in 10% FBS, 2 mM thymidine for 15 hours; then washed three times with PBS, 10% FBS and samples were taken every two hours over a 16 hour period). A portion of each time sample was fixed with ethanol and treated with propidium iodide and subjected to FACs analysis for determination of the percentage of cells in each phase of the cell cycle. […] HeLa cells treated with 10 μM cisplatin or 100 ng/ml nocodazole were used as controls for G1-phase and late G2/M-phases, respectively. From the remaining portion of each of these time samples, total RNA was isolated and used to assess the expression of cell cycle marker mRNAs using the real-time RT-PCR methods and/or used to screen microarrays to assess the expression of miRNAs over the course of the cell cycle. It was observed that several miRNAs are expressed in a cell-cycle-dependent manner. Shown in Table 30 are the mRNA levels of the E2F1 transcription factor and topoisomerase 2A (Top2A), which vary over the course of the cell cycle and can be used for comparison to the experimental groups for the confirmation of cell cycle phase. Data are an average of three trials.
In some embodiments, HeLa cells were also treated with oligomeric compounds targeting miRNAs. […] The medium was removed from the plates. Each well was washed in 250 μl of PBS. […] Control cells received LIPOFECTIN™ only. […] After 24 hours (Table 31) or 48 hours (Table 32), cells were prepared for flow cytometry analysis to generate a cell cycle profile. The cell cycle profile was analyzed with the ModFit program (Verity Software House, Inc., Topsham Me.).
The random-mer ISIS 29848 (SEQ ID NO: 737) was used as a negative control, and ISIS 183891 (SEQ ID NO: 847), targeting kinesin-like 1/Eg5, was included as a positive control. Data are expressed as percentage of cells in each phase relative to the untreated control (UTC); values above 100 are considered to indicate a delay or arrest in that phase of the cell cycle. […] In some cases, the same oligomeric compound was tested in repeated experiments.
In accordance with the present invention, certain oligomeric compounds targeting miRNAs were selected for dose response studies. Using the cell cycle assay described above, the cell cycle profiles of HeLa or A549 cells treated with varying concentrations of oligomeric compounds of the present invention were assessed.
HeLa cells were treated with 25-, 50-, 100- or 150 nM of the oligomeric compounds ISIS
Numbers 327902 (SEQ ID NO: 320) and 328383 (SEQ ID NO: 492), both targeted against mir-192, and ISIS 327905 (SEQ ID NO: 323), targeting mir-205, and ISIS 328403 (SEQ ID NO: 512), targeting mir-106. Cells treated with increasing concentrations of oligomeric compounds were compared to untreated cells, to assess the dose-dependency of the observed delay or arrest. The random-mer ISIS 29848 was used as a negative control. Cells were prepared for flow cytometry 48-hours after oligonucleotide treatment, as described, supra.

Where [1] appears, read: 150 nM oligomeric compound, 24 hours, relative to untreated control (UTC = 100).
The mark [2] stands for this setting: 150 nM, 48 hours, relative to untreated control.

As for “338666 (antisense TCACGTGGAGAGGAGTTAAA; all 2'-MOE, all phosphorothioate, methylation of C not given here) [compound 338666]”, under setting [1], the “% cells aneuploid” value was 102%, the “% cells in cell cycle phase G1” value was 123%, the “% cells in cell cycle phase G2/M” value was 158% and the “% cells in cell cycle phase S” value amounted to 63%. Besides, the “% cells in cell cycle phase subG1” value under setting [1] came to 235%. Under “150 nM oligomeric compound”, the “% cells in cell cycle phase: G1” value turned out to be 44%, the “% cells in cell cycle phase: G2/M” value is reported as 217%, the “% cells in cell cycle phase: S” value amounted to 136% and the “% cells in cell cycle phase: aneuploid” value was 125%. Further, the “% cells in cell cycle phase: subG1” value (150 nM oligomeric compound) was 1832%. Also, under setting [2], the “% cells in cell cycle phase G1” value is reported as 92%, the “% cells in cell cycle phase G2/M” value was found to be 130%, the “% cells in cell cycle phase S” value is recorded as 98% and the “% cells in cell cycle phase aneuploid” value was 151%. Under setting [2], the “% cells in cell cycle phase subG1” value was found to be 214%.

“GGTACAATCAACGGTCGATGGT (anti-miR; chemistry not fully specified) [ISIS 327934, uniform 2′-MOE PS; targets mir-213]”: the “phase of the cell cycle in which cells arrest or delay” value (HeLa, 150 nM, 48 hours) is “G2/M- and S-phases”.

Regarding “338678 (antisense CTGGTTGGGTATGAGACAGA; all 2'-MOE, all phosphorothioate, methylation of C not given here) [compound 338678]”, under setting [1], the “% cells aneuploid” value stood at 202%, the “% cells in cell cycle phase G1” value is reported as 122%, the “% cells in cell cycle phase G2/M” value turned out to be 131% and the “% cells in cell cycle phase S” value is 75%. Under setting [1], the “% cells in cell cycle phase subG1” value amounted to 162%. Further, for the setting “150 nM oligomeric compound”, the “% cells in cell cycle phase: G1” value worked out at 81%, the “% cells in cell cycle phase: G2/M” value amounted to 188%, the “% cells in cell cycle phase: S” value is reported as 78% and the “% cells in cell cycle phase: aneuploid” value is 179%. Further, under “150 nM oligomeric compound”, the “% cells in cell cycle phase: subG1” value was 1158%. In addition, under setting [2], the “% cells in cell cycle phase G1” value was found to be 103%, the “% cells in cell cycle phase G2/M” value amounted to 105%, the “% cells in cell cycle phase S” value turned out to be 94% and the “% cells in cell cycle phase aneuploid” value came to 132%. Further, under setting [2], the “% cells in cell cycle phase subG1” value is on record as 129%.

For “341787 (antisense CACAGGTTAAAGGGTCTCAGGGA; all 2'-MOE, all phosphorothioate, methylation of C not given here) [compound 341787]”, under setting [1], the “% cells aneuploid” value amounted to 165%, the “% cells in cell cycle phase G1” value is 113%, the “% cells in cell cycle phase G2/M” value came out at 144% and the “% cells in cell cycle phase S” value is 75%. Further, the “% cells in cell cycle phase subG1” value under setting [1] is on record as 221%. Where the note is “150 nM oligomeric compound”, the “% cells in cell cycle phase: G1” value was determined as 55%, the “% cells in cell cycle phase: G2/M” value was found to be 197%, the “% cells in cell cycle phase: S” value was found to be 126% and the “% cells in cell cycle phase: aneuploid” value is 153%. In addition, under “150 nM oligomeric compound”, the “% cells in cell cycle phase: subG1” value is reported as 707%. Under setting [2], the “% cells in cell cycle phase G1” value stood at 88%, the “% cells in cell cycle phase G2/M” value turned out to be 145%, the “% cells in cell cycle phase S” value is 96% and the “% cells in cell cycle phase aneuploid” value came out at 177%. Further, the “% cells in cell cycle phase subG1” value under setting [2] is recorded as 324%.

Turning to “328727 (antisense e[5mC]*eT*eG*e[5mC]*eT*d[5mC]*d[5mC]*dA*dG*dA*dG*d[5mC]*d[5mC]*d[5mC]*dG*eA*eG*eT*e[5mC]*eG) [compound 328727]”, under setting [1], the “% cells aneuploid” value is given as 161%, the “% cells in cell cycle phase G1” value came out at 133%, the “% cells in cell cycle phase G2/M” value is on record as 105% and the “% cells in cell cycle phase S” value stood at 81%. For the same substance, the “% cells in cell cycle phase subG1” value under setting [1] amounted to 245%. In addition, where the note is “150 nM oligomeric compound”, the “% cells in cell cycle phase: G1” value is recorded as 68%, the “% cells in cell cycle phase: G2/M” value turned out to be 124%, the “% cells in cell cycle phase: S” value was 152% and the “% cells in cell cycle phase: aneuploid” value stood at 140%. Further, the “% cells in cell cycle phase: subG1” value (150 nM oligomeric compound) stood at 846%.

On to “CAGACTCCGGTGGAATGAAGGA (anti-miR; chemistry not fully specified) [ISIS 327905, uniform 2′-MOE PS; targets mir-205]”, for which the “phase of the cell cycle in which cells arrest or delay” value (HeLa, 150 nM, 48 hours) was “S-phase”.

As to “328780 (antisense eT*eG*eT*e[5mC]*eA*dT*dG*dG*dA*d[5mC]*dA*dG*dG*dA*dT*eG*eA*eA*eT*eA) [compound 328780]”, under setting [1], the “% cells aneuploid” value came out at 149%, the “% cells in cell cycle phase G1” value worked out at 96%, the “% cells in cell cycle phase G2/M” value amounted to 136% and the “% cells in cell cycle phase S” value is listed as 87%. The “% cells in cell cycle phase subG1” value under setting [1] is given as 124%. In addition, under “150 nM oligomeric compound”, the “% cells in cell cycle phase: G1” value was found to be 83%, the “% cells in cell cycle phase: G2/M” value stood at 110%, the “% cells in cell cycle phase: S” value was found to be 130% and the “% cells in cell cycle phase: aneuploid” value is recorded as 133%. Also, the “% cells in cell cycle phase: subG1” value (150 nM oligomeric compound) is 917%.

On to “341788 (antisense AGCCAAGCTCAGACGGATCCGA; all 2'-MOE, all phosphorothioate, methylation of C not given here) [compound 341788]”, for which, under setting [1], the “% cells aneuploid” value was determined as 114%, the “% cells in cell cycle phase G1” value is listed as 154%, the “% cells in cell cycle phase G2/M” value turned out to be 140% and the “% cells in cell cycle phase S” value was determined as 54%. The “% cells in cell cycle phase subG1” value under setting [1] came to 303%. Further, under “150 nM oligomeric compound”, the “% cells in cell cycle phase: G1” value amounted to 76%, the “% cells in cell cycle phase: G2/M” value is reported as 163%, the “% cells in cell cycle phase: S” value came out at 105% and the “% cells in cell cycle phase: aneuploid” value came to 116%. For the same substance, the “% cells in cell cycle phase: subG1” value (150 nM oligomeric compound) stood at 748%.

Take “ISIS 338797: SEQ ID NO: 624, targeted to hypothetical miRNA-144 (CTGGGGAGGGGGTTAGCGTC; all 2'-MOE, all phosphorothioate, methylation of C not given here)”: the “chromosome missegregation (subG1 or aneuploid DNA content)” value (HeLa, 150 nM, 24-hour and 48-hour timepoints) is “induce chromosome missegregation events”.

Consider “328339 (eG*e[5mC]*eA*eG*e[5mC]*dG*d[5mC]*dA*dG*d[5mC]*dT*dG*dG*dT*d[5mC]*eT*e[5mC]*e[5mC]*e[5mC]*e[5mC]) [compound 328339]”, for which, under setting [1], the “% cells aneuploid” value was 61%, the “% cells in cell cycle phase G1” value is given as 77%, the “% cells in cell cycle phase G2/M” value is listed as 143% and the “% cells in cell cycle phase S” value was determined as 102%. Besides, under setting [1], the “% cells in cell cycle phase subG1” value is 235%. In addition, for the setting “150 nM oligomeric compound”, the “% cells in cell cycle phase: G1” value came out at 73%, the “% cells in cell cycle phase: G2/M” value stood at 123%, the “% cells in cell cycle phase: S” value worked out at 153% and the “% cells in cell cycle phase: aneuploid” value is 92%. Besides, the “% cells in cell cycle phase: subG1” value (150 nM oligomeric compound) worked out at 678%.

For the substance “338713 (antisense ACCTCTCAGGAAGACGGACT; all 2'-MOE, all phosphorothioate, methylation of C not given here) [compound 338713]”, under setting [1], the “% cells aneuploid” value is reported as 187%, the “% cells in cell cycle phase G1” value is on record as 152%, the “% cells in cell cycle phase G2/M” value is 101% and the “% cells in cell cycle phase S” value worked out at 72%. For the same substance, the “% cells in cell cycle phase subG1” value under setting [1] came to 93%. For the same substance, for the setting “150 nM oligomeric compound”, the “% cells in cell cycle phase: G1” value came to 95%, the “% cells in cell cycle phase: G2/M” value came out at 109%, the “% cells in cell cycle phase: S” value came to 104% and the “% cells in cell cycle phase: aneuploid” value came to 194%. Besides, the “% cells in cell cycle phase: subG1” value (150 nM oligomeric compound) worked out at 426%.
